Data set [1] concerns obese model rats [肥胖模型大鼠]. The data set is described as follows: Weight-loss efficacy test in obese model SD rats (diet-induced obesity, with swimming exercise). The format is in vivo, rat. As to conditions: 30 days; for body fat (testicular and perirenal fat pads) / body weight increase / fat/body ratio: gavage.
The conditions of data set [2]: background art, cited from earlier work.
A short description of data set [3]: Angle of repose (powder poured through a funnel) / flowability. It is filed as physicochemical.
Data set [4] in a line: Critical relative humidity (CRH) from moisture absorption equilibrium curve. The format is physicochemical.
For data set [5] the following is noted: background art; cited from earlier work.
[6] abbreviates: L-carnitine tartrate control + exercise, 0.13 g in 2 ml water, swimming 30 min, 5 times/week, * (P<0.05 vs model control) printed.
[7] abbreviates: high dose + exercise (30x recommended human dose; Ex. 2 at maximum dissolved concentration; Ex. 1/2/3/4: 0.96/0.36/1.02/1.08 g in 2 ml water), * (P<0.05 vs model control): all.

Regarding `C[N+](C)(C)CC(O)CC(=O)O` (centres unmarked) [左旋肉碱酒石酸盐, reference compound], the “body fat (testicular and perirenal fat pads)” value in data set [1] (L-carnitine tartrate control + exercise, 0.13 g in 2 ml water, swimming 30 min, 5 times/week) amounted to 8.2 ± 4.3 g. Also, in data set [1] (setting [6]), the body weight increase came out at 21.3 ± 14.2 g and the fat/body ratio amounted to 0.03±0.01. Further, the hygroscopicity result in data set [2] (words) was “仍有较大的吸湿性”. For the same compound, the “relative humidity at which deliquescence occurs” value in data set [2] is reported as over 60%.

In turn, `C[N+](C)(C)CC(O)CC(=O)O` (centres unmarked) [实施例1药, 左旋肉碱L-苹果酸盐] gave an angle of repose in data set [3] (solid powder flowing from funnel) of 30 °. Also, the flowability entry in data set [3] (words, judged from angle of repose) is “流动性较好”. Besides, the “body fat (testicular and perirenal fat pads)” value in data set [1] (setting [7]) is 5.9 ± 4.5 g; in data set [1] (low dose + exercise (5x recommended human dose; Ex. 1/2/3/4: 0.16/0.18/0.17/0.18 g in 2 ml water), * (P<0.05 vs model control): Ex. 2, 3, 4) it was 7.3 ± 4.1 g. The body weight increase in data set [1] (setting [7]) is 15.2 ± 7.9 g; in data set [1] (low dose + exercise (5x recommended human dose; Ex. 1/2/3/4: 0.16/0.18/0.17/0.18 g in 2 ml water), * (P<0.05 vs model control): Ex. 1, 3, 4) it was 19.3 ± 10.2 g. The fat/body ratio in data set [1] (setting [7]) is 0.02±0.02; in data set [1] (low dose + exercise (5x recommended human dose; Ex. 1/2/3/4: 0.16/0.18/0.17/0.18 g in 2 ml water), no * printed), 0.03±0.01. For the same compound, the “difference between results of Example 1, 2, 3 and 4 drugs” value in data set [1] (words, obese rats) is “无明显差异”. In addition, the “critical relative humidity CRH” value in data set [4] (25 °C, saturated salt solutions in desiccator) amounted to 87%. Further, in data set [4] (words, judged from CRH at 25 °C), the “moisture absorption (hygroscopicity)” value is “不易吸潮”.

In the case of `CC(=O)[O-].CC(=O)[O-].[Ca+2]` [醋酸钙], the LD50 in data set [5] is under 5000 mg/kg.

The values above are taken from patent publication CN102911068A, “左旋肉碱l-苹果酸盐及其制备方法与用途” (GUANGZHOU AOHAI BIO-TECHNOLOGY CO LTD, priority 2011, dated 2013).
